The results in this text go back to patent publication US10548894B2, “Combination therapy” (Array BioPharma Inc., priority 2013, dated 2020).

Experiment in all cases: Microscopy imaging assay (viable nuclei count), 72 h
Common to all, as to assay type: cell-based

The subject of experiment [1] is A-375 cells expressing truncated p61-BRAFV600E. Particulars: Homo sapiens, A-375 p61 BRafV600E, single agent. Here is the method:
(§1) Compound stocks are prepared in DMSO at a final concentration of 10 mM.
(§2) A-375 and WM-266-4 cells were purchased from American Type Culture Collection (ATCC). The A-375 cells were cultured in DMEM medium (ATCC) and the WM-266-4 cells were cultured in EMEM medium (ATCC) both supplemented with 10% fetal bovine serum (Gibco) and incubated at 37° C./5% CO2. The cell lines engineered to express commonly occurring alleles indicative of resistance were acquired from Novartis-Emeryville. These resistant models include, A-375 cells expressing mutant MEK1P124L, truncated p61-BRAFV600E, or mutant NRASQ61K, and WM-266-4 cells expressing mutant MEK1C121S, truncated p61-BRAFV600E, or mutant NRASQ61K. These cells were cultured in the appropriate parental medium with selection marker G418 and in the presence of 5 uM LFE158 (MEK mutants) or LIH720 (truncated p61-BRAFV600E).
(§3) For screening, cells were seeded in 80 ul of medium in 384-well plates (Thermo Scientific, cat#4332) at 500 (A-375) or 750 (WM-266-4) cell densities per well using a MultiDrop Combi (Thermo-Fisher) with an 8-channel standard cassette. To promote an even distribution of cells across the entire well, cells were briefly centrifuged at 1000 RPM and incubated at room temperature 30 minutes. All plates were incubated at 37° C., 5% CO2 for 24 h prior to compound addition. Compound stock was freshly prepared in the appropriate culture medium, and added using a PAA robot equipped with a 200n1 pin tool. In a minimum of three replicate wells, single agent and combination effects after 72 hours, were assessed by both quantification of cellular ATP levels via Cell Titer Glo (Promega) according to the manufacturer's protocol and by microscopy imaging. […]
(§4) An automated image analysis pipeline was established using custom-made scripts in the open-source, statistical programming language R, and functions of the BioConductor package EBImage. The goal was to quantify the number of viable nuclei (cells) per well as an approximation for cell viability. […]

Experiment [2] has as its system WM-266-4 cells expressing mutant NRASQ61K. The conditions noted are these: Homo sapiens, WM-266-4 NRASQ61K, single agent. Here is the method:
as §1, §2, §3, §4

In experiment [3] the test system is WM-266-4 cells expressing truncated p61-BRAFV600E. The conditions noted are these: Homo sapiens, WM-266-4 p61 BRafV600E, single agent. As to the method:
as §1, §2, §3, §4

With `COC(=O)N[C@@H](C)CNc1nccc(-c2cn(C(C)C)nc2-c2cc(Cl)cc(NS(C)(=O)=O)c2F)n1` [Compound of Formula (I)], the results for the IC50 in experiment [1], in experiment [2] and in experiment [3] were 849 nM, 868 nM and 933 nM, respectively.
